Assay results from patent US10703740B2, “Substituted benzimidazoles, their preparation and their use as pharmaceuticals” (NEOMED Institute, priority 2015, dated 2020).

Experiments:
BRD4(BD1) = BRD4(BD1) (Homo sapiens (Human), UniProt O60885); experiment: In vitro bromodomain inhibition assay (AlphaLISA); format: binding; settings: His-tagged BRD4 BD1 200 nM, biotinylated H4-tetraacetyl peptide 200 nM
Method: To measure activity of bromodomain inhibitors, a His-epitope tagged BRD4 BD149-170 is purchased from BPS Bioscience. BRD4 binding and inhibition is assessed by monitoring the engagement of biotinylated H4-tetraacetyl peptide (H4K5/8/12/16; AnaSpec #64989-025) with the target using the AlphaLISA technology (Perkin-Elmer). Specifically, in a 384 well OptiPlate, BRD4(BD1) (200 nM final) is pre-incubated with either DMSO (final 1.0% DMSO) or a compound dilution series in DMSO. All reagents are diluted in assay buffer containing 50 mM HEPES (pH 7.4), 100 mM NaCl, 0.1% (w/v) BSA, and 0.05% (w/v) CHAPS. After a 30 minute incubation at rt, H4 peptide is added (200 nM final) and the reaction is incubated an additional 30 minutes at rt. Alpha streptavidin donor beads and AlphaLISA nickel chelate acceptor beads are then added to a final concentration of 10 μg/mL each. After one hour, equilibration plates are read on an Envision instrument and IC50s calculated using a four parameter non-linear curve fit (results are shown in Table 1).

[1] = system: human C-Myc transcription in MV-4-11 cells; experiment: Transcription of human C-Myc in human leukemic MV-4-11 cells (QuantiGene 2.0); format: cell-based; settings: Homo sapiens, MV4-11, 4 h, inhibition of C-Myc mRNA, 4 hours treatment, read-out: IC50 MV-4-11 Cell
Method: The effect of compounds on transcription of human C-Myc gene is monitored in human B-myelomonocytic leukemia cell line MV-4-11 (from American Type Culture Collection (ATCC), Manassas, Va., USA) using QuantiGene 2.0 assay kit (Affymetrix, Santa Clara, Calif., USA).
Typically, 8,000 MV-4-11 cells are plated in sterile 96-well plates (Costar #3598 from Fisher Scientific Canada, Ottawa, Ontario, Canada) in Iscove's medium supplemented with 10% fetal bovine serum, glutamine (2 mM), and penicillin (100 I.U.) and streptomycin (100 μg/mL) (all from Wisent Inc., St. Bruno, Quebec, Canada). Compounds are dissolved in DMSO at 30 mM. A series of 1:3 dilutions are first made in DMSO, and further 1:100 dilutions are made in serum-containing cell culture media. The final concentration of DMSO is 0.1% in cell culture media. After cells are treated with various concentrations of test compound for 4 hours, cells are lysed using Quantigene 2.0 sample processing kit (# QS0100). C-Myc mRNA is detected using a QuantiGene 2.0 assay kit (# QS0009) with gene-specific probe to human C-Myc (# SA-50182) following the manufacturer's recommendations. Luminescene signals are read on Flexstation II microplate reader (Molecular Devices, Sunnyvale, Calif., USA).

| IC50 (BRD4(BD1)) [nM] | IC50 [1] [nM] | Structure (SMILES) |
| --- | --- | --- |
| 210 | 790 | COCCn1c(C)nc2ccc(-c3cc(C)c(=O)n(C)c3)cc21 [Compound 8, 5-[3-(2-methoxyethyl)-2-methyl-benzimidazol-5-yl]-1,3-dimethylpyridin-2-one] |
| 280 | 520 | COCCn1c(C2CC2)nc2ccc(-c3cc(C)c(=O)n(C)c3)cc21 [Compound 7, 5-[2-cyclopropyl-3-(2-methoxyethyl)benzimidazol-5-yl]-1,3-dimethyl-pyridin-2-one] |
| 190 | 230 | Cc1cc(-c2ccc3nc(C)n(CCOC(F)(F)F)c3c2)cn(C)c1=O [Compound 5, 1,3-dimethyl-5-[2-methyl-3-[2-(trifluoromethoxy)ethyl]benzimidazol-5-yl]pyridin-2-one] |
| 140 | 76 | Cc1cc(-c2ccc3nc(C4CCOCC4)n(CCOC(F)(F)F)c3c2)cn(C)c1=O [Compound 1, 1,3-dimethyl-5-[2-tetrahydropyran-4-yl-3-[2-(trifluoromethoxy)ethyl]benzimidazol-5-yl]pyridin-2-one] |
| 100 | 240 | COC[C@@H](C)n1c(C2CC2)nc2ccc(-c3cc(C)c(=O)n(C)c3)cc21 [Compound 15, 5-[2-cyclopropyl-3-[(1R)-2-methoxy-1-methylethyl]benzimidazol-5-yl]-1,3-dimethyl pyridin-2-one] |
| 190 | 86 | Cc1cc(-c2ccc3nc(C4CC4)n(CCOC(F)(F)F)c3c2)cn(C)c1=O [Compound 2, 5-[2-cyclopropyl-3-[2-(trifluoromethoxy)ethyl]benzimidazol-5-yl]-1,3-dimethylpyridin-2-one] |
| 98 | 170 | COC[C@@H](C)n1c(C)nc2ccc(-c3cc(C)c(=O)n(C)c3)cc21 [Compound 11, 5-[3-[(1R)-2-methoxy-1-methyl-ethyl]-2-methyl-benzimidazol-5-yl]-1,3-dimethyl pyridin-2-one] |
| 130 | 89 | CC(=O)N1CCC(c2nc3ccc(-c4cc(C)c(=O)n(C)c4)cc3n2CCOC(F)(F)F)CC1 [Compound 4, 5-[2-(1-acetyl-4-piperidyl)-3-[2-(trifluoromethoxy)ethyl]benzimidazol-5-yl]-1,3-dimethylpyridin-2-one] |
| 810 | 850 | Cn1cc(-c2ccc3nc(C4CC4)n(CCOC(F)(F)F)c3c2)cc(C(F)(F)F)c1=O [Compound 13, 5-[2-cyclopropyl-3-[2-(trifluoromethoxy)ethyl]benzimidazol-5-yl]-1-methyl-3-(trifluoromethyl)pyridin-2-one] |
| 91 | 56 | Cc1cc(-c2ccc3nc(C4CCC4)n(CCOC(F)(F)F)c3c2)cn(C)c1=O [Compound 6, 5-[2-cyclobutyl-3-[2-(trifluoromethoxy)ethyl]benzimidazol-5-yl]-1,3-dimethyl-pyridin-2-one] |
| 330 | 550 | COC[C@@H](C)n1cnc2ccc(-c3cc(C)c(=O)n(C)c3)cc21 [Compound 12, 5-[3-[(1R)-2-methoxy-1-methyl-ethyl]benzimidazol-5-yl]-1,3-dimethyl-pyridin-2-one] |
| 99 | 62 | COC[C@@H](C)n1c(C2CCOCC2)nc2ccc(-c3cc(C)c(=O)n(C)c3)cc21 [Compound 10, 5-[3-[(1R)-2-methoxy-1-methyl-ethyl]-2-tetrahydropyran-4-yl-benzimidazol-5-yl]-1,3-dimethyl-pyridin-2-one] |
| 220 | 250 | COCCn1c(C2CCOCC2)nc2ccc(-c3cc(C)c(=O)n(C)c3)cc21 [Compound 9, 5-[3-(2-methoxyethyl)-2-tetrahydropyran-4-yl-benzimidazol-5-yl]-1,3-dimethyl pyridin-2-one] |
| 310 | 95 | Cc1cc(-c2ccc3ncn(CCOC(F)(F)F)c3c2)cn(C)c1=O [Compound 3, 1,3-dimethyl-5-[3-[2-(trifluoromethoxy)ethyl]benzimidazol-5-yl]pyridin-2-one] |
